Earlier results on 2 compounds are cited in patent US20030124075A1, “Use of a composition containing at least one oxidation-sensitive hydrophilic active principle and at least one N-vinylimidazole polymer or copolymer” (L'OREAL, priority 2001, published 2003).

One series concerns the target T1, tyrosinase (Homo sapiens, UniProt P14679).
T1 sequence (P14679 19-529): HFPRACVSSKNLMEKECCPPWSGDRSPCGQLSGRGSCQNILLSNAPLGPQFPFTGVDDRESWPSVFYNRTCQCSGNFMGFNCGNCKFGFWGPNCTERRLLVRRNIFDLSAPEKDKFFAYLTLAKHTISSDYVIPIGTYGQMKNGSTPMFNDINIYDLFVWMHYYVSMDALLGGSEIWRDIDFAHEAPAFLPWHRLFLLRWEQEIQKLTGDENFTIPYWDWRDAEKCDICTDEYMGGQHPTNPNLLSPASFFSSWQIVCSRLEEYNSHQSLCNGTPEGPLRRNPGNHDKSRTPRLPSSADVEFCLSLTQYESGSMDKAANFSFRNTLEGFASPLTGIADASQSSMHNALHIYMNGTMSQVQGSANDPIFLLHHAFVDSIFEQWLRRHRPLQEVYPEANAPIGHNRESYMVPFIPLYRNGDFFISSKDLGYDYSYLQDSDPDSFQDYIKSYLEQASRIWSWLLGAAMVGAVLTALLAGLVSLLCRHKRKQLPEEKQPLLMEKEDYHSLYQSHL
The settings on record: J. Soc. Cosmet. Chem., 42, 1991.

The test system of the next series is melanocytes. The settings on record: Pigment. Cell. Res., 13, 2000.
For series [1] the following is noted: J. Am. Acad. Dermatol., 1996, 34, 29-33.

`O=C1O[C@H]([C@@H](O)CO)C(O)=C1O` [ascorbic acid]: the “inhibiting effect on tyrosinase” value at tyrosinase is recorded as “has been demonstrated”.

With `O=C1O[C@H]([C@@H](O)CO)C([O-])=C1OP(=O)([O-])[O-].O=C1O[C@H]([C@@H](O)CO)C([O-])=C1OP(=O)([O-])[O-].[Mg+2].[Mg+2].[Mg+2]` [magnesium ascorbyl phosphate], in the series on melanocytes, the dendricity of melanocytes entry was “can reduce the dendricity of melanocytes”. Moreover, in series [1], the bioavailability result is “very low”.
